In brackets after ≈: the same amount, converted by molar mass.
Tested on: SH-SY5Y cells of human neuroblastoma
Experiment: MTT growth inhibition of SH-SY5Y human neuroblastoma cells
Format: cell-based
Details: DMEM with 5% fetal bovine serum, 48 hours culture at 37° C., absorbance at 570 nm, read-out: 50% growth-inhibiting concentration
Method: SH-SY5Y cells of human neuroblastoma were cultured in DMEM medium (Dulbecco's modified Eagle medium) (containing 5% fetal bovine serum). Compound 1 of the present invention in a series of dilutions was added thereto and cultured at 37° C. under a 5% carbon dioxide atmosphere for 48 hours, followed by adding a MTT (3-(4,5-dimethyl-thiazol-2-yl)-2,5-diphenyl tetrazoliumbromide) reagent and further culturing for 2 to 4 hours. Absorbance at 570 nm was then measured to calculate the survival ratio.

CC=C(/C=C(C)/C=C/CC/C=C(\C)C(=O)C12OC1C(C)(O)NC2=O)C(=O)OC(C)(C)C (stereo not shown) [Compound 1, (3E,5E,9E)-tert-butyl-2-ethylidene-11-(4-hydroxy-4-methyl-2-oxo-6-oxa-3-aza-bicyclo[3.1.0]hex-1-yl)-4,10-dimethyl-11-oxounde ca-3,5,9-trienoate]
IC50: 0.4 mg/L (≈ 0.927 µM)
